Results on one compound are retold here after publication doi:10.64898/2025.12.09.693205v1 (biorxiv, 2025).

The target in this assay is T1, UBE2N (Homo sapiens, UniProt P61088).
T1 sequence (P61088 1-152): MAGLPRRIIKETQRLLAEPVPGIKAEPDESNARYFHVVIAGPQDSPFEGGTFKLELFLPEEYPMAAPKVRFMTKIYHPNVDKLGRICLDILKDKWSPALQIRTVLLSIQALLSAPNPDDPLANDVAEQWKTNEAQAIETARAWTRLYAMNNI
In words: microscale thermophoresis. Particulars: PBS pH 7.4, 0.05% Tween20; labelled protein; MST-on time 9-10 s; n = 3. Format: binding. For orientation: In MST a laser heats a spot of the sample, and binding alters the fluorescence response.

In general, Kd refers to the equilibrium constant for the complex coming apart.

The compound `COC(=O)c1cc2c(cn1)[nH]c1ccc(O)cc12` [Variabine B] came in with a Kd of 35.3 ± 6.3 µM.
